Source: US10357481B2 (MERCK SHARP & DOHME CORP., priority 2015, dated 2019)

Molecular target: T1, human PDE2A1 (Homo sapiens, UniProt O00408)
T1 construct: GST; purchased BPS Bioscience (San Diego, Calif.) 60020; host or cells: insect cells
Experiment: IMAP FP PDE selectivity panel, human PDE2A1
Type: biochemical
Conditions: Lab B; read-out: Human PDE2 Ki (nM) Lab B
Procedure, shortened: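 Human PDE2A1 tested alongside PDE1–11 by IMAP fluorescence polarization at room temperature. Substrate was 50 nM FAM-cAMP plus 1000 nM cGMP, buffer pH 7.2 with MgCl2 and DTT, enzyme set for 20% conversion. Ten 3-fold compound dilutions; 60 min reaction, then IMAP binding solution, 1 h, parallel/perpendicular fluorescence read.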

T1 sequence (O00408 1-920 isoform O00408-2): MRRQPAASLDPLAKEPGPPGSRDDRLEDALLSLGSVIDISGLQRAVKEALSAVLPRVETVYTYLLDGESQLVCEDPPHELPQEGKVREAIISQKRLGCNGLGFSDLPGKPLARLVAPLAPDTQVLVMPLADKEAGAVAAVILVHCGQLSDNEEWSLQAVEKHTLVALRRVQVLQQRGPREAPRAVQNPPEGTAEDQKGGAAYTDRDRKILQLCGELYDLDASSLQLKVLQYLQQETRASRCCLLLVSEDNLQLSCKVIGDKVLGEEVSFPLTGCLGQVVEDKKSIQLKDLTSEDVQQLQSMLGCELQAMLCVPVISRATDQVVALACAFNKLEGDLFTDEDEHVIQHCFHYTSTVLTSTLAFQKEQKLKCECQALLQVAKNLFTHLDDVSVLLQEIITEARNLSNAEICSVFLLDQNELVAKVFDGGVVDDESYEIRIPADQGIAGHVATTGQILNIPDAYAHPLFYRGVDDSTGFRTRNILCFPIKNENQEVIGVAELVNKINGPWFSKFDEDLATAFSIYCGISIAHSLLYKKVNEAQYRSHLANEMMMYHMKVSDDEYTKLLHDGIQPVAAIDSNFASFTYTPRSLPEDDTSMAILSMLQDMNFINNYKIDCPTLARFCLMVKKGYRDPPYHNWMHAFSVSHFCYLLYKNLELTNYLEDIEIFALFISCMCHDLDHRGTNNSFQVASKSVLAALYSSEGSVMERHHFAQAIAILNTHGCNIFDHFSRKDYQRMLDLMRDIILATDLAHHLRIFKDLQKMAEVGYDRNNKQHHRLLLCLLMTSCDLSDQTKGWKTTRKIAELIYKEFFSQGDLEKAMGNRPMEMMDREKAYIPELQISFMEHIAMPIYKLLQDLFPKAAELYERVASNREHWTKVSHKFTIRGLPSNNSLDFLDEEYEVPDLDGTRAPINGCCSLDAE

| SMILES | Ki |
| --- | --- |
| CC(C)(O)C(Nc1cc(C(F)F)nc2ncnn12)c1ccc(C(F)(F)F)c(F)c1 (single isomer, unassigned) [Example 227, (R)- or (S)-1-(5-(Difluoromethyl)-[1,2,4]triazolo [1,5-a]pyrimidin-7-ylamino)-1-(3-fluoro-4-(trifluoromethyl)phenyl)-2-methylpropan-2-ol] | 7.6 nM |
| CC(C)(O)C(Nc1cc(C(F)F)nc2ncnn12)c1ccc(OC(F)(F)F)cc1F (single isomer, unassigned) [Example 186, (1R or S)-{[5-(Difluoromethyl) [1,2,4]triazolo [1,5-a]pyrimidin-7-yl]amino}-1-[2-fluoro-4-(trifluoromethoxy)phenyl]-2-methylpropan-2-ol] | 1900 nM |
| OCCCc1cc(NC2(c3ccc(C(F)(F)F)c(F)c3)CC2)n2ncnc2n1 [Example 245, 3-(7-((1-(3-Fluoro-4-(trifluoromethyl)phenyl)cyclopropyl)amino)-[1,2,4]triazo[1,5-a]pyrimidin-5-yl)propan-1-ol] | 204 nM |
| Cc1cc(NC2(c3ccc(OC(F)(F)F)c(F)c3)CC2)n2ncnc2n1 [Example 60, N-{1-[3-Fluoro-4-(trifluoromethoxy)phenyl]cyclopropyl}5-methyl-[1,2,4]triazolo[1,5-a]pyrimidin-7-amine] | 32 nM |
| CC(C)(C)c1ccc(C(Nc2cc(C(F)(F)F)nc3ncnn23)C(C)(C)O)cc1 (single isomer, unassigned) [Example 162, (1R or S)-1-(4-tert-Butylphenyl)-2-methyl-1-{[5-(trifluoromethyl) [1,2,4]triazolo [1,5-a]pyrimidin-7-yl]amino} propan-2-ol] | ~2050 nM |
| CC(C)(C)[C@@H](Nc1cncc2ncnn12)c1ccc(C(F)(F)F)c(F)c1 [Example 284] | 156 nM |
| Cc1cc(N[C@@H](c2ccc(S(F)(F)(F)(F)F)cc2)C2(C)CC2)n2ncnc2n1 [Example 44, 5-Methyl-N-{(R)-(1-methylcyclopropyl)[4-(pentafluoro-λ^6-sulfanyl)phenyl]methyl} [1,2,4]triazolo[1,5-a]pyrimidin-7-amine] | 18 nM |
| CC(C)(O)C(Nc1cc(C(F)(F)F)nc2ncnn12)c1ccc(OC(F)(F)F)cc1F (single isomer, unassigned) [Example 171, (1S or R)-1-[2-Fluoro-4-(trifluoromethoxy)phenyl]-2-methyl-1-{[5-(trifluoromethyl) [1,2,4]triazolo [1,5-a]pyrimidin-7-yl]amino} propan-2-ol] | ~1560 nM |
| Cc1cc(N[C@@H](c2ccc(OC(F)F)cc2)C(C)C)n2ncnc2n1 [Example 23, N-{(1R)-1-[4-(Difluoromethoxy)phenyl]-2-methylpropyl}-5-methyl [1,2,4]triazolo[1,5-a]pyrimidin-7-amine] | 45 nM |
| OCc1cc(NC2(c3ccc(C(F)(F)F)c(F)c3)CC2)n2ncnc2c1 [Example 266, (5-((1-(3-Fluoro-4-(trifluoromethyl)phenyl)cyclopropyl)amino)-[1,2,4]triazolo[1,5-a]pyridin-7-yl)methanol] | 13 nM |
| CC(C)(O)C(Nc1cc(C2CC2)nc2ncnn12)c1ccc(OC(F)(F)F)cc1F (single isomer, unassigned) [Example 142, (1S or R)-1-[(5- Cyclopropyl [1,2,4]triazolo [1,5-a]pyrimidin-7-yl)amino]-1-[2-fluoro-4-(trifluoro-methoxy)phenyl]-2-methylpropan-2-ol] | > 2960 nM |
| Cc1cc(NC(c2ccc(C(C)(C)C)cc2)C(C)(C)O)n2ncnc2n1 (single isomer, unassigned) [Example 106] | > 1240 nM |
| Cc1cc(N[C@H](C)c2ccc(S(F)(F)(F)(F)F)cc2)n2ncnc2n1 [Example 12, 5-Methyl-N-{(1R)-1-[4-(pentafluoro-λ^6-sulfanyl)phenyl)ethyl} [1,2,4]triazolo[1,5-a]pyrimidin-7-amine] | 68 nM |
| Cc1cc(NC(c2ccc(C(C)(C)C)cc2)C(C)(C)O)n2ncnc2n1 (single isomer, unassigned) [Example 107] | 13 nM |
| CC(C)(O)C(Nc1cc(C(F)(F)F)nc2ncnn12)c1ccc(OC(F)(F)F)c(F)c1 (single isomer, unassigned) [Example 176, (1R or S)-1-[3-Fluoro-4-(trifluoromethoxy)phenyl]-2-methyl-1-{[5-(trifluoromethyl) [1,2,4]triazolo [1,5-a]pyrimidin-7-yl]amino} propan-2-ol] | ~1310 nM |
| Cc1cc(NC(c2ccc(OC(F)(F)F)cc2F)C(C)(C)O)n2nc(C)nc2n1 (single isomer, unassigned) [Example 135, (1R or S)-1-[(2,5-Dimethyl[1,2,4]triazolo[1,5-a]pyrimidin-7-yl)amino]-1-[2-fluoro-4-(tri-fluoromethoxy)phenyl]-2-methylpropan-2-ol] | 30 nM |

More lines, now with the values ahead:

| Ki | SMILES |
| --- | --- |
| 48 nM | Cc1cc(NC(C)(C)c2ccc(C(F)(F)F)c(F)c2)n2ncnc2n1 [Example 46, N-{1-[3-Fluoro-4-(trifluoromethyl)phenyl]-1-methylethyl}-5-methyl [1,2,4]triazolo[1,5-a]pyrimidin-7-amine] |
| ~2340 nM | CC(C)(C)c1cc(NC(c2ccc(C(F)(F)F)cc2)C(C)(C)O)n2ncnc2n1 (stereo in doubt) [Example 158, (1S)-1-[(5-tert-Butyl[1,2,4]triazolo[1,5-a]pyrimidin-7-yl)amino]-2-methyl-1-[4-(trifluoromethyl)phenyl]propan-2-ol] |
| 482 nM | Cc1cc(N[C@H](C)c2cc(F)c(C(F)(F)F)cc2F)n2ncnc2n1 [Example 6, N-{(1R)-1-[2,5-Difluoro-4-(trifluoromethyl)phenyl]ethyl}-5-methyl[1,2,4]triazolo[1,5-a] pyrimidin-7-amine] |
| 206 nM | Cc1cc(NC(C)(C)c2ccc(OC(F)(F)F)cc2F)n2ncnc2n1 [Example 51, N-{1-[2-Fluoro-4-(trifluoromethoxy)phenyl]-1-methylethyl}-5-methyl [1,2,4]triazolo[1,5-a]pyrimidin-7-amine] |
| 742 nM | Cc1cc(N[C@@H](c2ccc(OC(F)(F)F)cc2F)C(C)(C)O)n2ncnc2n1 [Example 93, (1S)-1-[2-Fluoro-4-(trifluoromethoxy)phenyl]-2-methyl-[(5-methyl-[1,2,4]triazolo[1,5-a]pyrimidin-7-yl)amino]propan-2-ol] |
| 1.1 nM | CC(C)(O)C(Nc1cc(Cl)nc2ncnn12)c1ccc(C(F)(F)F)c(F)c1 (single isomer, unassigned) [Example 223, (R)- or (S)-1-(5-Chloro-[1,2,4]triazolo [1,5-a]pyrimidin-7-ylamino)-1-(3-fluoro-4-(trifluoromethyl)phenyl)-2-methylpropan-2-ol] |
| 342 nM | Cc1cc(NC(C)(C)c2ccc(C(F)(F)F)cc2C)n2ncnc2n1 [Example 54, 5-Methyl-N-{1-methyl-1-[2-methyl-4-(trifluoromethyl)phenyl]ethyl}[1,2,4]triazolo[1,5-a] pyrimidin-7-amine] |
| 14 nM | Cc1cc(O[C@@H](c2ccc(C(F)(F)F)cc2)C(C)(C)C)n2ncnc2n1 (single isomer, unassigned) [Example 260] |
| 82 nM | Cc1cc(N[C@@H](c2ccc(C(F)(F)F)cc2)[C@@H](C)O)n2ncnc2n1 [Example 89, (1S,2R)-1-[(5-Methyl[1,2,4]triazolo[1,5-a]pyrimidin-7-yl)amino]-1-[4-(trifluoromethyl)phenyl]propan-2-ol] |
| > 2960 nM | Cc1cc(N[C@@H](c2ccc(C(F)(F)F)c(F)c2)C(C)(C)O)nc2ncnn12 (single isomer, unassigned) [Example 292] |
